Data reported in patent US12540118B2, “Dendrene amide compound, bactericide and use thereof” (Jiangsu Flag Chemical Industry Co., Ltd., priority 2020, dated 2026).
Like-named read-outs stand apart in the source and are kept apart here.

Experiments:
[1] = tested on: Sclerotinia sclerotiorum; assay: Mycelial growth rate method; assay type: cell-based
[2] = tested on: Erysiphe graminis; assay: Erysiphe graminis potting method; assay type: in vivo; settings: for pest or weed control at 100 µg/mL: Blumeria graminis, read-out: Erysiphe graminis control rating
Protocol: The fungicidal activity of the control agents and target compounds are determined. The test and investigation method refers to SOP-SC-1116 Erysiphe graminis potting method in disinfectant rolls written by KANGZHUO and GUBAOGEN in “Standard operation specification for testing biological activity of pesticides”.

[3] = tested on: Sphaerotheca fuliginea; assay: Sphaerotheca fuliginea potting method; assay type: in vivo; settings: 100 mg/L; for pest or weed control at 100 µg/mL: Podosphaera fuliginea, read-out: Sphaerotheca fuliginea control rating
Protocol: The fungicidal activity of the control agents and target compounds are determined. The test and investigation method refers to SOP-SC-1101 sphaerotheca fuliginea potting method in disinfectant rolls written by KANGZHUO and GUBAOGEN in “Standard operation specification for testing biological activity of pesticides”.

[4] = tested on: Fusarium wilt of water melon; assay: Mycelial growth rate method; assay type: cell-based
[5] = tested on: Phytophthora capsici; assay: Mycelial growth rate method; assay type: cell-based
[6] = tested on: Alternaria solani; assay: Mycelial growth rate method; assay type: cell-based
[7] = tested on: Gibberella zeae; assay type: cell-based
[8] = tested on: Rhizoctonia cerealis; assay: Mycelial growth rate method; assay type: cell-based
[9] = tested on: Corn big spot; assay: Mycelial growth rate method; assay type: cell-based
[10] = tested on: Sphaerotheca fuliginea; assay: Field test of sphaerotheca fuliginea; assay type: in vivo
Protocol: The test is carried out according to GB/T17980.30-2000 of pesticide field efficacy test guidelines. The survey method is to randomly take four points for each cell and survey all leaves of 2 plants per point. And investigating the sphaerotheca fuliginea incidence before the first application, and investigating the sphaerotheca fuliginea incidence 7 and 14 days after the second application respectively, and calculating the disease index and the controlling effect.

[11] = tested on: Alternaria alternata; assay: Mycelial growth rate method; assay type: cell-based
[12] = tested on: Phytophthora infestans; assay type: cell-based
[13] = tested on: Fusarium fujikura; assay: Protective activity against rice bakanae disease; assay type: in vivo; settings: 5 μg/mL, solvent DMSO
Text: (§1) Test of protective activity and therapeutic activity of Compound 1 against rice bakanae disease.
(§2) The test and investigation method refers to SOP-SC-1112 rice bakanae disease potting method in disinfectant rolls written by KANGZHUO and GUBAOGEN in “Standard operation specification for testing biological activity of pesticides”.
(§3) The phenamacril is a mainstream medicament for preventing and treating the rice bakanae disease at present, resistant strains are more and more along with long-time use, and […] strains showing sensitivity and one strain showing resistance to the […] are selected as test strains.
(§4) Four Fusarium fujikura SX18-32, SX18-50, SX18-59 and SX18-63 are selected for testing strains, and the current mainstream commercial bactericide phenamacril is selected as a positive control. Wherein SX18-32, SX18-50 and SX18-59 show sensitivity to phenamacril and SX18-63 show resistance to phenamacril.

[14] = tested on: Fusarium fujikura; assay: Therapeutic activity against rice bakanae disease; assay type: in vivo; settings: 5 μg/mL, solvent DMSO
Text: as §1, §2, §3, §4

[15] = molecular target: T1, succinate dehydrogenase (Sus scrofa, UniProt A5GZW8+D0VWV4+Q007T0); assay: Enzyme activity assay, succinate dehydrogenase (DCIP reduction); assay type: biochemical, porcine; settings: read-out: Inhibitors (10 μM, SQR)
T1 construct: isolated from porcine hearts; from tissue; host or cells: porcine heart
Outline: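 Porcine heart succinate dehydrogenase (2 nM) in 100 mM sodium phosphate pH 7.4, 0.3 mM EDTA, 20 mM sodium succinate and 53 μM DCIP at 23° C with stirring. DCIP reduction followed at 600 nm (ε 21 mM^−1 cm^−1); linear slope minus baseline gives initial rate.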

[16] = strain SX18-59 (S), listed as compound 1
[17] = strain SX18-63 (R), listed as compound 1

T1 sequence (Q0QF01 43-664 partner): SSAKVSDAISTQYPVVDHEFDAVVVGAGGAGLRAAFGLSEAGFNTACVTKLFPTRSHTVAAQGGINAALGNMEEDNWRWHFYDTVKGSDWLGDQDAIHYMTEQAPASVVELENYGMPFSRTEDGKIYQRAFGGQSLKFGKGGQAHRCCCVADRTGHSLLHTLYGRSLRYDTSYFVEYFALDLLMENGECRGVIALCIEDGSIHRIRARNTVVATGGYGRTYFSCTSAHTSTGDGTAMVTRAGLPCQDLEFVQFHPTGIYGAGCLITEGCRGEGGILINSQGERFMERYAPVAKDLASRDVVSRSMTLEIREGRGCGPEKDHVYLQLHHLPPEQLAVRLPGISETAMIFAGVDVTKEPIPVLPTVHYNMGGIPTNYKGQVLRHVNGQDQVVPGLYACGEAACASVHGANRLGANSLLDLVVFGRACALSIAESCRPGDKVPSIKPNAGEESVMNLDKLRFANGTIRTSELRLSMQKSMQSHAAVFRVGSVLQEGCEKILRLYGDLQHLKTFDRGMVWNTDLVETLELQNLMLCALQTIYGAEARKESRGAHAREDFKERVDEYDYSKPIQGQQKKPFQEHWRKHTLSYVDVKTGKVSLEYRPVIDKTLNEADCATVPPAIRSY
T1 sequence (Q007T0 29-280): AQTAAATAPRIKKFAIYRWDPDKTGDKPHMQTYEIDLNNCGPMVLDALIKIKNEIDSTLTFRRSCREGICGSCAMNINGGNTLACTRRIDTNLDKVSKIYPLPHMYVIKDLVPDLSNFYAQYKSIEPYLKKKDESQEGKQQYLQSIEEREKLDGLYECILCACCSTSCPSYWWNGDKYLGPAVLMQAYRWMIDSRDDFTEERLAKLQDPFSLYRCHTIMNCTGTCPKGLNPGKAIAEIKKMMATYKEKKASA
T1 sequence (D0VWV4 30-169): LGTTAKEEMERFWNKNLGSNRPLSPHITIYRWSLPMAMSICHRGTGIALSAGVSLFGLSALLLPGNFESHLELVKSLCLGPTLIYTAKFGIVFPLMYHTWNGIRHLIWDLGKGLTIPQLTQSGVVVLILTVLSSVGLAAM
T1 sequence (A5GZW8 57-159 limits assumed): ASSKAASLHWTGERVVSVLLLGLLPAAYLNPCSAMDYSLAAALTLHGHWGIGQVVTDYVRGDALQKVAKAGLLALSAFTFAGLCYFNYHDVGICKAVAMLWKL

With CON(C(=O)c1cn(C)nc1C(F)F)C(C)Cc1c(Cl)cc(Cl)cc1Cl (centres unmarked) [Pydiflumetofen, reference compound] the “Inhibition ratio (%) Sclerotinia sclerotiorum” value ([1]; 1.5625 μg/mL) was “C (C <70%)”, the “Inhibition ratio (%) Sclerotinia sclerotiorum” value ([1]; 6.25 μg/mL) was “A (80% ≤ A ≤ 100%)” and the “Inhibition ratio (%) Sclerotinia sclerotiorum” value ([1]; 25 μg/mL) was “A (80% ≤ A ≤ 100%)”. For the same molecule, the “Erysiphe graminis control rating” value ([2]; 6.25 mg/L) was “A (80% ≤ A ≤ 100%)”, the “Erysiphe graminis control rating” value ([2]; 25 mg/L) was “A (80% ≤ A ≤ 100%)” and the “Erysiphe graminis control rating” value ([2]; 100 mg/L) was “A (80% ≤ A ≤ 100%)”. The “Sphaerotheca fuliginea control rating” value [3] was “A (80% ≤ A ≤ 100%)”, the “Inhibition ratio (%) Fusarium wilt of water melon” value (“Inhibition ratio (%) Fusarium wilt” below) ([4]; 1.5625 μg/mL) was “A (80% ≤ A ≤ 100%)” and the “Inhibition ratio (%) Fusarium wilt” value ([4]; 6.25 μg/mL) was “A (80% ≤ A ≤ 100%)”. For the same molecule, the “Inhibition ratio (%) Fusarium wilt” value ([4]; 25 μg/mL) was “A (80% ≤ A ≤ 100%)”, the “Inhibition ratio (%) Phytophthora capsici” value ([5]; 1.5625 μg/mL) was “B (70% ≤ B < 80%)” and the “Inhibition ratio (%) Phytophthora capsici” value ([5]; 6.25 μg/mL) was “A (80% ≤ A ≤ 100%)”. For the same molecule, the “Inhibition ratio (%) Phytophthora capsici” value ([5]; 25 μg/mL) was “A (80% ≤ A ≤ 100%)”, the “Inhibition ratio (%) Alternaria solani” value ([6]; 1.5625 μg/mL) was “A (80% ≤ A ≤ 100%)” and the “Inhibition ratio (%) Alternaria solani” value ([6]; 6.25 μg/mL) was “A (80% ≤ A ≤ 100%)”. The “Inhibition ratio (%) Alternaria solani” value ([6]; 25 μg/mL) was “A (80% ≤ A ≤ 100%)”, the “Inhibition ratio (%) Gibberella zeae” value ([7]; 1.5625 μg/mL) was “A (80% ≤ A ≤ 100%)” and the “Inhibition ratio (%) Gibberella zeae” value ([7]; 6.25 μg/mL) was “A (80% ≤ A ≤ 100%)”. The “Inhibition ratio (%) Gibberella zeae” value ([7]; 25 μg/mL) was “A (80% ≤ A ≤ 100%)”, the “Inhibition ratio (%) Rhizoctonia cerealis” value ([8]; 1.5625 μg/mL) was “A (80% ≤ A ≤ 100%)” and the “Inhibition ratio (%) Rhizoctonia cerealis” value ([8]; 6.25 μg/mL) was “A (80% ≤ A ≤ 100%)”. The “Inhibition ratio (%) Rhizoctonia cerealis” value ([8]; 25 μg/mL) was “A (80% ≤ A ≤ 100%)”, the “Inhibition ratio (%) Corn big spot” value ([9]; 1.5625 μg/mL) was “A (80% ≤ A ≤ 100%)” and the “Inhibition ratio (%) Corn big spot” value ([9]; 6.25 μg/mL) was “A (80% ≤ A ≤ 100%)”. The “Inhibition ratio (%) Corn big spot” value ([9]; 25 μg/mL) was “A (80% ≤ A ≤ 100%)”, the Controlling effect % ([10]; 100 mg/L) was 92% and the “Inhibition ratio (%) Alternaria alternata” value ([11]; 1.5625 μg/mL) was “A (80% ≤ A ≤ 100%)”. For the same molecule, the “Inhibition ratio (%) Alternaria alternata” value ([11]; 6.25 μg/mL) was “A (80% ≤ A ≤ 100%)”, the “Inhibition ratio (%) Alternaria alternata” value ([11]; 25 μg/mL) was “A (80% ≤ A ≤ 100%)” and the “Inhibition ratio (%) Phytophthora infestans” value ([12]; 1.5625 μg/mL) was “A (80% ≤ A ≤ 100%)”. For the same molecule, the “Inhibition ratio (%) Phytophthora infestans” value ([12]; 6.25 μg/mL) was “A (80% ≤ A ≤ 100%)” and the “Inhibition ratio (%) Phytophthora infestans” value ([12]; 25 μg/mL) was “A (80% ≤ A ≤ 100%)”.
CCOC(=O)C(C#N)=C(N)c1ccccc1 [Phenamacril, reference compound] showed a Protective activity ([13]; strain SX18-32 (S)) of 83.6%, a Protective activity ([13]; strain SX18-59 (S)) of 58.8% and a Protective activity ([13]; strain SX18-63 (R)) of 19.6%. The Therapeutic activity ([14]; strain SX18-32 (S)) was 23.8%, the Therapeutic activity ([14]; strain SX18-59 (S)) was 50.0% and the Therapeutic activity ([14]; strain SX18-59 (S), listed as phenamacril) was “about 50%”. For the same molecule, the Therapeutic activity ([14]; strain SX18-63 (R)) was 0% and the Therapeutic activity ([14]; strain SX18-63 (R), listed as phenamacril) was “almost no therapeutic activity”.
With C=C(CN(C(=O)c1c(C(F)F)nn(C)c1F)C1CC1)c1ccc(Cl)cc1Cl [Compound 1] the “Inhibition ratio (%) Sclerotinia sclerotiorum” value ([1]; 1.5625 μg/mL) was “C (C <70%)”, the “Inhibition ratio (%) Sclerotinia sclerotiorum” value ([1]; 6.25 μg/mL) was “A (80% ≤ A ≤ 100%)” and the “Inhibition ratio (%) Sclerotinia sclerotiorum” value ([1]; 25 μg/mL) was “A (80% ≤ A ≤ 100%)”. For the same molecule, the Protective activity ([13]; strain SX18-32 (S)) was 97.4%, the Protective activity ([13]; strain SX18-32 (S), listed as compound 1) was “more than 90%” and the Protective activity ([13]; strain SX18-59 (S)) was 100.0%. The Protective activity [13, 16] was “more than 90%”, the Protective activity ([13]; strain SX18-63 (R)) was 93.7% and the Protective activity [13, 17] was “more than 90%”. It also gave an inhibition at 10 µM [15] greater than 90%, a pest or weed control at 100 µg/mL ([2]; 100 mg/L) of 80 to 100% and a pest or weed control at 100 µg/mL [3] of 80 to 100%. For the same molecule, the “Inhibition ratio (%) Fusarium wilt” value ([4]; 1.5625 μg/mL) was “A (80% ≤ A ≤ 100%)”, the “Inhibition ratio (%) Fusarium wilt” value ([4]; 6.25 μg/mL) was “A (80% ≤ A ≤ 100%)” and the “Inhibition ratio (%) Fusarium wilt” value ([4]; 25 μg/mL) was “A (80% ≤ A ≤ 100%)”. The “Inhibition ratio (%) Phytophthora capsici” value ([5]; 1.5625 μg/mL) was “B (70% ≤ B < 80%)”, the “Inhibition ratio (%) Phytophthora capsici” value ([5]; 6.25 μg/mL) was “A (80% ≤ A ≤ 100%)” and the “Inhibition ratio (%) Phytophthora capsici” value ([5]; 25 μg/mL) was “A (80% ≤ A ≤ 100%)”. For the same molecule, the “Inhibition ratio (%) Alternaria solani” value ([6]; 1.5625 μg/mL) was “A (80% ≤ A ≤ 100%)”, the “Inhibition ratio (%) Alternaria solani” value ([6]; 6.25 μg/mL) was “A (80% ≤ A ≤ 100%)” and the “Inhibition ratio (%) Alternaria solani” value ([6]; 25 μg/mL) was “A (80% ≤ A ≤ 100%)”. The “Inhibition ratio (%) Gibberella zeae” value ([7]; 1.5625 μg/mL) was “A (80% ≤ A ≤ 100%)”, the “Inhibition ratio (%) Gibberella zeae” value ([7]; 6.25 μg/mL) was “A (80% ≤ A ≤ 100%)” and the “Inhibition ratio (%) Gibberella zeae” value ([7]; 25 μg/mL) was “A (80% ≤ A ≤ 100%)”. The “Inhibition ratio (%) Rhizoctonia cerealis” value ([8]; 1.5625 μg/mL) was “C (C <70%)”, the “Inhibition ratio (%) Rhizoctonia cerealis” value ([8]; 6.25 μg/mL) was “B (70% ≤ B < 80%)” and the “Inhibition ratio (%) Rhizoctonia cerealis” value ([8]; 25 μg/mL) was “A (80% ≤ A ≤ 100%)”. For the same molecule, the “Inhibition ratio (%) Corn big spot” value ([9]; 1.5625 μg/mL) was “A (80% ≤ A ≤ 100%)”, the “Inhibition ratio (%) Corn big spot” value ([9]; 6.25 μg/mL) was “A (80% ≤ A ≤ 100%)” and the “Inhibition ratio (%) Corn big spot” value ([9]; 25 μg/mL) was “A (80% ≤ A ≤ 100%)”. The Therapeutic activity ([14]; strain SX18-32 (S)) was 60.2%, the Therapeutic activity ([14]; strain SX18-59 (S)) was 96.8% and the Therapeutic activity [14, 16] was 96.8%. The Therapeutic activity ([14]; strain SX18-63 (R)) was 83.3%, the Therapeutic activity [14, 17] was “far better therapeutic effect” and the Controlling effect % ([10]; 50 mg/L) was 82%. The Controlling effect % ([10]; 50 mg/L, listed as compound 1) was “more than 80%”, the Controlling effect % ([10]; 100 mg/L) was 88% and the Controlling effect % ([10]; 100 mg/L, listed as compound 1) was “the same control effect as the current mainstream insecticides”. For the same molecule, the Controlling effect % ([10]; 200 mg/L) was 92%, the “Inhibition ratio (%) Alternaria alternata” value ([11]; 1.5625 μg/mL) was “A (80% ≤ A ≤ 100%)” and the “Inhibition ratio (%) Alternaria alternata” value ([11]; 6.25 μg/mL) was “A (80% ≤ A ≤ 100%)”. The “Inhibition ratio (%) Alternaria alternata” value ([11]; 25 μg/mL) was “A (80% ≤ A ≤ 100%)”, the “Inhibition ratio (%) Phytophthora infestans” value ([12]; 1.5625 μg/mL) was “A (80% ≤ A ≤ 100%)” and the “Inhibition ratio (%) Phytophthora infestans” value ([12]; 6.25 μg/mL) was “A (80% ≤ A ≤ 100%)”. The “Inhibition ratio (%) Phytophthora infestans” value ([12]; 25 μg/mL) was “A (80% ≤ A ≤ 100%)”.
CC(C(=C(Cl)Cl)c1cc(C(F)(F)F)ccc1Cl)N(C(=O)c1c(C(F)F)nn(C)c1F)C1CC1 (centres unmarked) [Compound 209] was tested, and the inhibition at 10 µM [15] was greater than 90%, the pest or weed control at 100 µg/mL ([2]; 100 mg/L) was 80 to 100% and the pest or weed control at 100 µg/mL [3] was 80 to 100%.
